Source: patent US7803769B2 (priority 2006, dated 2010)
Entries after “also recorded” stand apart in the source; their conditions may differ. Bridge positions count the residues as written; N and C are the ends. Square brackets hold non-standard residues; d marks the D form. Ends that are not written are not given here. Peptide text beside a SMILES is read from it. 1Nal = N[C@@H](Cc1cccc2ccccc12)C(=O)O

B1: FcLoop-L2-OsK1-L2: OsK1 inserted into the human IgG1 Fc-loop with 2-Gly linkers on both sides (protein)
chain: MDKTHTCPPCPAPELLGGPSVFLFPPKPKDTLMISRTPEVTCVVVDVSHEDPEVKFNWYVDGVEVHNAKTKPREEQYNSTYRVVSVLTVLHQDWLNGKEYKCKVSNKALPAPIEKTISKAKGQPREPQVYTLPPSRDELGGGVIINVKCKISRQCLEPCKKAGMRFGKCMNGKCHCTPKGGTKNQVSLTCLVKGFYPSDIAVEWESNGQPENNYKTTPPVLDSDGSFFLYSKLTVDKSRWQQGNVFSCSVMHEALHNHYTQKSLSLSPGK
modifications: Definition of Artificial Sequence: Synthetic protein
B2: FcLoop-L2-ShK-L2: ShK inserted into the human IgG1 Fc-loop with 2-Gly linkers on both sides (protein)
chain: MDKTHTCPPCPAPELLGGPSVFLFPPKPKDTLMISRTPEVTCVVVDVSHEDPEVKFNWYVDGVEVHNAKTKPREEQYNSTYRVVSVLTVLHQDWLNGKEYKCKVSNKALPAPIEKTISKAKGQPREPQVYTLPPSRDELGGRSCIDTIPKSRCTAFQCKHSMKYRLSFCRKTCGTCGGTKNQVSLTCLVKGFYPSDIAVEWESNGQPENNYKTTPPVLDSDGSFFLYSKLTVDKSRWQQGNVFSCSVMHEALHNHYTQKSLSLSPGK
modifications: Definition of Artificial Sequence: Synthetic protein
B3: L2-6H-L3-CH2-L10-OsK1 (1-38) (protein)
chain: MGGHHHHHHGGGPSVFLFPPKPKDTLMISRTPEVTCVVVDVSHEDPEVKFNWYVDGVEVHNAKTKPREEQYNSTYRVVSVLTVLHQDWLNGKEYKCKVSNKALPAPIEKTISGGGGSGGGGSGVIINVKCKISRQCLEPCKKAGMRFGKCMNGKCHCTPK

Legend:
[1] = target: human Kv1.3 channel (Homo sapiens, UniProt P22001); type: cell-based
human Kv1.3 channel, sequence (P22001 whole entry): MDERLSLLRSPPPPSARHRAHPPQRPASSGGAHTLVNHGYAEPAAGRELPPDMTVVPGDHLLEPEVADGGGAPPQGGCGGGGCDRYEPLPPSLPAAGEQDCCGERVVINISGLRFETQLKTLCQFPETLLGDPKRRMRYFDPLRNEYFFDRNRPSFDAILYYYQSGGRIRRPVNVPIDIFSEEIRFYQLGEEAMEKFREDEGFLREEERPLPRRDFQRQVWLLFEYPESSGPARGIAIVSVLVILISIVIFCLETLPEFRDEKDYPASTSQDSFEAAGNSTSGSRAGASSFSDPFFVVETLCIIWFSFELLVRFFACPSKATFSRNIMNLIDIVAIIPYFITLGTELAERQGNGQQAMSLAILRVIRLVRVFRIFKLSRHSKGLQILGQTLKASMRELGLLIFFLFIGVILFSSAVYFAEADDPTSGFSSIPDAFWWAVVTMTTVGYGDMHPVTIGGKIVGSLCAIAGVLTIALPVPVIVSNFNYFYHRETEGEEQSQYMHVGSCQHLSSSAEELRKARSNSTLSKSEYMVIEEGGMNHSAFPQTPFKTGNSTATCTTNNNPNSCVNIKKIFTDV

[2] = tested on: thapsigargin-induced IFN-g production in human whole blood; type: cell-based
[3] = tested on: CD40L on CD4+ T cells in human whole blood; type: cell-based
[4] = tested on: IL-2R on CD4+ T cells in human whole blood; type: cell-based
[5] = tested on: thapsigargin-induced IL-2 production in human whole blood
[6] = target: T1, human Kv1.3 (CHO) (Homo sapiens, UniProt P22001); experiment: cell-based
T1 construct: expressed in transfected cells
T1 sequence (P22001 whole entry): as above

[7] = target: T2, human Kv1.1 (HEK293) (Homo sapiens, UniProt Q09470); experiment: cell-based
T2 construct: expressed in transfected cells; host or cells: HEK293
T2 sequence (Q09470 whole entry): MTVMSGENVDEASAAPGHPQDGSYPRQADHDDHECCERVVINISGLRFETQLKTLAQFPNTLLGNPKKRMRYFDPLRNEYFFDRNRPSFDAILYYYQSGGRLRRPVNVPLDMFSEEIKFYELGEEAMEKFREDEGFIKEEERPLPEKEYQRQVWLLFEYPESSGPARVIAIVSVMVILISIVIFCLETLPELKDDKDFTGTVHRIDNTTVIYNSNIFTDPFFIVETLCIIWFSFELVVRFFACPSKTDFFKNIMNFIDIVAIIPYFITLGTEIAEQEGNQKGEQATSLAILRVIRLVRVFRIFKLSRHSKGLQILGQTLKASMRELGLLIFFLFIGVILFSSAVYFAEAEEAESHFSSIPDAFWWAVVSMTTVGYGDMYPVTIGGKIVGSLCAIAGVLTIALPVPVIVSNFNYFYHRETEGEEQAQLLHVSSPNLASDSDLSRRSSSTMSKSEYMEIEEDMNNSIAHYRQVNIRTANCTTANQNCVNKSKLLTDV

Molecule	whole blood cytokine response (IL-2 and IFNg), blockade in words [5]	IC50 [6]	IC50 [7]	other results
Fc-L10-ShK[2-35]: human IgG1 Fc fused via 10 amino acid linker to ShK[2-35]	–	–	–	block of human Kv1.3 current (in words) [1]: potently blocks human Kv1.3 current; thapsigargin-induced IFN-g production in human whole blood (in words) [2]: suppressed; also recorded: blocked; thapsigargin-induced upregulation of CD40L on T cells (in words) [3]: blocked; thapsigargin-induced upregulation of IL-2R on T cells (in words) [4]: blocked
Fc-L10-OSK1[K7S,E16K,K20D]: Fc-L10-OSK1 with K7S, E16K and K20D substitutions	–	–	–	block of human Kv1.3 current (in words) [1]: significant decrease in potency as well as selectivity; fold less potent than the synthetic OSK1 toxin peptide (Kv1.3) [1]: approximately 21 fold
CC[C@H](C)[C@@H]1NC(=O)[C@H](CCCCN)NC(=O)[C@@H](NC(=O)[C@H](CCCCN)NC(=O)[C@@H](NC(=O)[C@H](CC(N)=O)NC(=O)[C@@H](NC(=O)[C@@H](NC(=O)[C@@H](NC(=O)CN)C(C)C)[C@@H](C)CC)[C@@H](C)CC)C(C)C)CSSC[C@@H]2NC(=O)[C@H](CCCCN)NC(=O)CNC(=O)[C@H](Cc3ccccc3)NC(=O)[C@H](CCCNC(=N)N)NC(=O)[C@H](CCSC)NC(=O)CNC(=O)[C@H](C)NC(=O)[C@H](CCCCN)NC(=O)[C@H](CCCCN)NC(=O)[C@@H]3CSSC[C@@H](C(=O)N[C@H](C(=O)N4CCC[C@H]4C(=O)N[C@@H](CCCCN)C(=O)O)[C@@H](C)O)NC(=O)[C@H](Cc4c[nH]cn4)NC(=O)[C@H](CSSC[C@H](NC(=O)[C@H](CCC(N)=O)NC(=O)[C@H](CCCNC(=N)N)NC(=O)[C@H](CO)NC1=O)C(=O)N[C@@H](CC(C)C)C(=O)N[C@@H](CCC(=O)O)C(=O)N1CCC[C@H]1C(=O)N3)NC(=O)[C@H](CCCCN)NC(=O)CNC(=O)[C@H](CC(N)=O)NC(=O)[C@H](C)NC2=O [OSK1[Ala-29]] (H-GVIINVKCKISRQCLEPCKKAGMRFGKCANGKCHCTPK-OH; disulfide 8-28, 14-33, 18-35)	several orders of magnitude more potent	–	–	–
Fc-L10-OSK1[K7S]: Fc-L10-OSK1 with lysine to serine at position 7	–	–	–	difference in Kv1.3 potency compared to Fc-L10-OSK1 [1]: 2 fold; fold less potent than the synthetic OSK1 toxin peptide (Kv1.3) [1]: approximately 10 fold
SEQ ID No: 4989: OSK1 analog without beta strand 1 (des 1-7), Table 42 (CKISRQCLKPCKDAGMRFGKCMNGKCHC-NH2; ends and bridges not checked)	still retain activity in blocking inflammation	–	–	–
CC[C@H](C)[C@@H]1NC(=O)[C@H](CCCCN)NC(=O)[C@@H](NC(=O)[C@H](CCCCN)NC(=O)[C@@H](NC(=O)[C@H](CC(N)=O)NC(=O)[C@@H](NC(=O)[C@@H](NC(=O)[C@@H](NC(=O)CN)C(C)C)[C@@H](C)CC)[C@@H](C)CC)C(C)C)CSSC[C@@H]2NC(=O)[C@H](CCCCN)NC(=O)CNC(=O)[C@H](Cc3ccccc3)NC(=O)[C@H](CCCNC(=N)N)NC(=O)[C@H](CCSC)NC(=O)CNC(=O)[C@H](C)NC(=O)[C@H](Cc3cccc4ccccc34)NC(=O)[C@H](CCCCN)NC(=O)[C@@H]3CSSC[C@@H](C(=O)N[C@H](C(=O)N4CCC[C@H]4C(=O)N[C@@H](CCCCN)C(=O)O)[C@@H](C)O)NC(=O)[C@H](Cc4c[nH]cn4)NC(=O)[C@H](CSSC[C@H](NC(=O)[C@H](CCC(N)=O)NC(=O)[C@H](CCCNC(=N)N)NC(=O)[C@H](CO)NC1=O)C(=O)N[C@@H](CC(C)C)C(=O)N[C@@H](CCC(=O)O)C(=O)N1CCC[C@H]1C(=O)N3)NC(=O)[C@H](CCCCN)NC(=O)CNC(=O)[C@H](CC(N)=O)NC(=O)[C@H](CCSC)NC2=O [K20Nal] (H-GVIINVKCKISRQCLEPCK[1Nal]AGMRFGKCMNGKCHCTPK-OH; disulfide 8-28, 14-33, 18-35)	–	0.0135 nM	< 0.00152 nM	–
CC[C@H](C)[C@@H]1NC(=O)[C@H](CCCCN)NC(=O)[C@@H](NC(=O)[C@H](CCCCN)NC(=O)[C@@H](NC(=O)[C@H](CC(N)=O)NC(=O)[C@@H](NC(=O)[C@@H](NC(=O)[C@@H](NC(=O)CN)C(C)C)[C@@H](C)CC)[C@@H](C)CC)C(C)C)CSSC[C@@H]2NC(=O)[C@H](CCCCN)NC(=O)CNC(=O)[C@H](Cc3ccccc3)NC(=O)[C@H](CCCNC(=N)N)NC(=O)[C@H](CCSC)NC(=O)[C@H](Cc3cccc4ccccc34)NC(=O)[C@H](C)NC(=O)[C@H](CCCCN)NC(=O)[C@H](CCCCN)NC(=O)[C@@H]3CSSC[C@@H](C(=O)N[C@H](C(=O)N4CCC[C@H]4C(=O)N[C@@H](CCCCN)C(=O)O)[C@@H](C)O)NC(=O)[C@H](Cc4c[nH]cn4)NC(=O)[C@H](CSSC[C@H](NC(=O)[C@H](CCC(N)=O)NC(=O)[C@H](CCCNC(=N)N)NC(=O)[C@H](CO)NC1=O)C(=O)N[C@@H](CC(C)C)C(=O)N[C@@H](CCC(=O)O)C(=O)N1CCC[C@H]1C(=O)N3)NC(=O)[C@H](CCCCN)NC(=O)CNC(=O)[C@H](CC(N)=O)NC(=O)[C@H](CCSC)NC2=O [G22Nal] (H-GVIINVKCKISRQCLEPCKKA[1Nal]MRFGKCMNGKCHCTPK-OH; disulfide 8-28, 14-33, 18-35)	–	> 3.33 nM	0.426 nM	–
CC[C@H](C)[C@@H]1NC(=O)[C@H](CCCCN)NC(=O)[C@@H](NC(=O)[C@H](CCCCN)NC(=O)[C@H](CCCNC(=N)N)NC(=O)[C@H](CC(N)=O)NC(=O)[C@@H](NC(=O)[C@@H](NC(=O)[C@@H](NC(=O)CN)C(C)C)[C@@H](C)CC)[C@@H](C)CC)CSSC[C@@H]2NC(=O)[C@H](CCCCN)NC(=O)CNC(=O)[C@H](Cc3ccccc3)NC(=O)[C@H](CCCNC(=N)N)NC(=O)[C@H](CCSC)NC(=O)CNC(=O)[C@H](C)NC(=O)[C@H](CCCCN)NC(=O)[C@H](CCCCN)NC(=O)[C@@H]3CSSC[C@@H](C(=O)N[C@H](C(=O)N4CCC[C@H]4C(=O)N[C@@H](CCCCN)C(=O)O)[C@@H](C)O)NC(=O)[C@H](Cc4c[nH]cn4)NC(=O)[C@H](CSSC[C@H](NC(=O)[C@H](CCC(N)=O)NC(=O)[C@H](CCCNC(=N)N)NC(=O)[C@H](CO)NC1=O)C(=O)N[C@@H](CC(C)C)C(=O)N[C@@H](CCC(=O)O)C(=O)N1CCC[C@H]1C(=O)N3)NC(=O)[C@H](CCCCN)NC(=O)CNC(=O)[C@H](CC(N)=O)NC(=O)[C@H](CCSC)NC2=O [V6R] (H-GVIINRKCKISRQCLEPCKKAGMRFGKCMNGKCHCTPK-OH; disulfide 8-28, 14-33, 18-35)	–	0.00865 nM	0.0024 nM	–
CC[C@H](C)[C@@H]1NC(=O)[C@H](CCCCN)NC(=O)[C@@H](NC(=O)[C@H](CCCCN)NC(=O)[C@@H](NC(=O)[C@H](CC(N)=O)NC(=O)[C@@H](NC(=O)[C@@H](NC(=O)[C@@H](NC(=O)CN)C(C)C)[C@@H](C)CC)[C@@H](C)CC)C(C)C)CSSC[C@@H]2NC(=O)[C@H](CCCCN)NC(=O)CNC(=O)[C@H](Cc3ccccc3)NC(=O)[C@H](CCCNC(=N)N)NC(=O)[C@H](Cc3cccc4ccccc34)NC(=O)CNC(=O)[C@H](C)NC(=O)[C@H](CCCCN)NC(=O)[C@H](CCCCN)NC(=O)[C@@H]3CSSC[C@@H](C(=O)N[C@H](C(=O)N4CCC[C@H]4C(=O)N[C@@H](CCCCN)C(=O)O)[C@@H](C)O)NC(=O)[C@H](Cc4c[nH]cn4)NC(=O)[C@H](CSSC[C@H](NC(=O)[C@H](CCC(N)=O)NC(=O)[C@H](CCCNC(=N)N)NC(=O)[C@H](CO)NC1=O)C(=O)N[C@@H](CC(C)C)C(=O)N[C@@H](CCC(=O)O)C(=O)N1CCC[C@H]1C(=O)N3)NC(=O)[C@H](CCCCN)NC(=O)CNC(=O)[C@H](CC(N)=O)NC(=O)[C@H](CCSC)NC2=O [M23Nal] (H-GVIINVKCKISRQCLEPCKKAG[1Nal]RFGKCMNGKCHCTPK-OH; disulfide 8-28, 14-33, 18-35)	–	0.036 nM	0.0644 nM	–
B1	potent blockade of the whole blood cytokine response in this assay, with IC50 values in the pM range	–	–	–
B2	potent blockade of the whole blood cytokine response in this assay, with IC50 values in the pM range	–	–	–
B3	–	–	–	IC50 ([2]; read-out: WB/IFNg (IC50)): 55.2 nM; IC50 ([5]; read-out: WB/IL-2 (IC50)): 38.5 nM
